Here are results for 3 molecules from PMC7291367, “Insightful Backbone Modifications Preventing Proteolytic Degradation of Neurotensin Analogs Improve NTS1-Induced Protective Hypothermia” (Frontiers in Chemistry, 2020).

A word on the Ki: it is a dissociation constant, usually derived from enzyme kinetics or from competition with a known ligand. As a reminder, the half-life is how long it takes for the measured level to halve. The low end stands for fast loss, the high end for slow loss.

For data set [1], the target named is T1, hNTS1 (Homo sapiens, UniProt P30989). The data set can be described thus: Competitive radioligand binding assay, 125I-[Tyr3]-NT displacement, CHO-K1 cell membranes. How it is done:
(§1) All media and additives are from Wisent (St-Bruno, QC). […] After 1 h of incubation at room temperature, the binding reaction mixture was transferred in polyethylenimine-coated 96-well-filter plates (Millipore, Billerica, MA). Reaction was terminated by filtration, and plates were washed three times with 200 μl of ice-cold binding buffer. […] Data were plotted using GraphPad Prism 8 using the One-site—Fit log (IC50) and represent the mean ± SEM of at least three separate experiments performed in triplicate.

In data set [2] the target is T2, hNTS2 (Homo sapiens, UniProt O95665). The data set can be described thus: Competitive radioligand binding assay, 125I-[Tyr3]-NT displacement, 1321N1 cell membranes. The following applies: ratio of Ki hNTS1 to Ki hNTS2. The protocol:
as §1

Data set [3] has as its system Sprague-Dawley rats. The data set can be described thus: Body temperature measurement after intrathecal injection. It counts as in vivo. The following applies: rat; for effect on body temperature: compared to the saline-treated group; for Hypothermia ΔTemp: 30 μg/kg, i.t., change in body temperature from baseline at 60 min. From the text:
The experimental procedures in this study were approved by the Animal Care Committee of the Université de Sherbrooke (protocol n°035-18B) and were in accordance with policies and directives of the Canadian Council on Animal Care. Adult male Sprague-Dawley rats, weighing 175–225 g (Charles River laboratories, St-Constant, Québec, Canada), were maintained on a 12-h light/dark cycle with free access to food and water and were housed two per cage on Aspen shavings in a quiet room.
Rats were lightly anesthetized with isoflurane/oxygen (Baxter corporation, Mississauga, ON, Canada; 2 L/min) flow and 25 μl of each compound were injected intrathecally with a 27-G 1/2 needle (BD PrecisionGlide, USA) into the subarachnoid space between vertebrae L5 and L6. Analogs 1–14 were diluted in physiological saline at 5 mg/ml, whereas compounds 15 and 16 were diluted in DMSO. For body temperature measurement, the injected solution of these both compounds contained 6% DMSO at final concentration (30 μg/kg).
Three consecutive days prior to testing, animals were individually acclimatized to manipulations and to a thermistor probe 5 min per day. The day of the test, experiments were always performed in a quiet room and between 8:00 and 12:00 PM. to reduce any variation related to the circadian rhythm. Body temperature was measured using a thermistor probe inserted into the rectum of adult Sprague-Dawley rats. Temperatures were recorded immediately before (baseline) and each 10 min for up to 60 min following intrathecal administration of saline, vehicle (6% DMSO) or NT analogs at 30 μg/kg. Changes in body temperature (Δ body temp) from baseline were determined for each animal. Data are expressed as mean ± SEM of 5 to 20 animals per condition.
Data are expressed as mean ± standard errors of the mean (SEM). All graphs and statistical analysis were performed using GraphPad Prism 8 (GraphPad software, La Jolla, CA, USA). A two-way ANOVA followed by Bonferroni's multiple comparisons test was used to determine significant differences between drug- and vehicle-treated rats at different timepoints post-injection.

For data set [4], the target named is T1, hNTS1. The conditions noted are these: 2015, cited from earlier work.
For data set [5], the target named is T2, hNTS2. The following applies: Ki values taken from the literature (Figure 1 legend) ref Fanelli et al., 2015; Eiselt et al., 2019; read-out: Binding, Ki hNTS2; cited from earlier work.
A short description of data set [6]: Plasma stability assay (UPLC/MS). The following applies: rat, plasma, 37°C, incubation up to 24 h. The class given is in vitro ADME. The protocol:
Rat plasma was obtained from blood by keeping the translucent phase after centrifugation at 15,000 g over 5 min. Plasma stability assay was carried out by incubating each compound at different incubation times in rat plasma at a final concentration of 0.156 mM. […] Then, 70 μl of a solution containing 10% trichloroacetic acid (TCA) and 0.5% nicotinamine, an internal standard, was added to stop the degradation by proteases. After centrifugation at 15,000 g for 30 min, supernatant was filtered through 0.22-μm filter and analyzed by UPLC/MS (Water H Class Acquity UPLC, mounted with Acquity UPLC BEH C18 column, 1.7 μm, 2.1 × 50 mm and paired to a SQ Detector 2). Compounds 1, 2, and 5 were analyzed using the mass or UV spectrum. Quantification was done by determining the area under the curve (AUC) ratio of each compound over AUC of nicotinamine for each incubation time. Data were plotted into GraphPad Prism 8 and the half-life of each compound was calculated using one-phase decay fit and represented the mean ± SEM of minimum three separate experiments.

Setting [7] is: Ki values taken from the literature (Figure 1 legend) ref Fanelli et al., Eiselt et al., 2019, read-out: Binding, Ki hNTS1.

“Also recorded” adds a separate entry of the source. Like-named read-outs stand apart in the source and are kept apart here. Numbered stars: 1 amine (or outer) side, 2 acyl side, 3 side chain; on linkers, the order of the positions; unused ones are H or OH. Square brackets hold non-standard residues; d marks the D form. Peptide text beside a SMILES is read from it. X1 = NCCCC[C@H](N)CN([C@@H](CCCCN)C(=O)[*:2])[*:1]; Ala(SiMe3) = C[Si](C)(C)C[C@H](N)C(=O)O; Dmt = Cc1cc(O)cc(C)c1C[C@H](N)C(=O)O; Tle = CC(C)(C)[C@H](N)C(=O)O Where only a bound is given, the exact number is not on record here.

T1 sequence (P30989 whole entry): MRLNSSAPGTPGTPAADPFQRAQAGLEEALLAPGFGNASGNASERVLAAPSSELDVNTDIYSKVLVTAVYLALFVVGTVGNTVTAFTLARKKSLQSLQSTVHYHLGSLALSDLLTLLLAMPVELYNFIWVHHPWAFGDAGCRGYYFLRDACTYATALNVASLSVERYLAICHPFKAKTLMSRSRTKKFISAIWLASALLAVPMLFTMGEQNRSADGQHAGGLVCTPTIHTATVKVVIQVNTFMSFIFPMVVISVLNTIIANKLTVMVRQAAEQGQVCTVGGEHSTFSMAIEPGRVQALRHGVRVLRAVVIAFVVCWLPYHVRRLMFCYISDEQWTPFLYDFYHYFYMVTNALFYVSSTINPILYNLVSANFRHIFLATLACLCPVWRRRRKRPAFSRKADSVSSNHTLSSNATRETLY
T2 sequence (O95665 whole entry): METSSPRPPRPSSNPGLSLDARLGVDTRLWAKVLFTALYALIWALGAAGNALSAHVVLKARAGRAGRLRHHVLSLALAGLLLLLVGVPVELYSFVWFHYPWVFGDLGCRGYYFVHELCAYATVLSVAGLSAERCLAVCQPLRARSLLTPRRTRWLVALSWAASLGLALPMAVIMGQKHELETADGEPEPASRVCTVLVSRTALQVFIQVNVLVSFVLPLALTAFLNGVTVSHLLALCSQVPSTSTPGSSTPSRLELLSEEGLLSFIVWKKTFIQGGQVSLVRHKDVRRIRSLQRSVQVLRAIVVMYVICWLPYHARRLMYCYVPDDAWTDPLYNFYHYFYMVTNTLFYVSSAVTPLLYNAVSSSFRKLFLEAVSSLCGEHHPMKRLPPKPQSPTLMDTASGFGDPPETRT

With `CC[C@H](C)[C@H](NC(=O)[C@H](Cc1ccc(O)cc1)NC(=O)[C@@H]1CCCN1C(=O)[C@H](CCCCN)NC(=O)[C@@H](N)CCCCN)C(=O)N[C@@H](C[Si](C)(C)C)C(=O)O` [Compound 3, H-Lys-Lys-Pro-Tyr-Ile-TMSAla-OH] (H-KKPYI[Ala(SiMe3)]-OH), the “fold increase in affinity at NTS1” value in data set [1] (compared to 1) is listed as 220 fold; in data set [1] (compared to native NT(8-13)), 80 fold. Moreover, in data set [2], the NTS1/NTS2 selectivity came to 0.1. In addition, in data set [3] (30 μg/kg i.t.), the “effect on body temperature” value is recorded as “not effective in reducing the body temperature; also recorded: not effective to induce drop in body temperature”. Also, the “Hypothermia ΔTemp” value in data set [3] is −0.07 ± 0.1 °C. For the same molecule, the Ki in data set [4] (setting [7]) was 0.018 ± 0.004 nM; in data set [4] (ref Fanelli et al., read-out: Ki NTS1) it was approximately 0.02 nM; in data set [5] it was 0.25 ± 0.07 nM.
Take `Cc1cc(O)cc(C)c1C[C@H](NC(=O)[C@@H]1CCCN1C(=O)[C@H](CCCCN)NC(=O)[C@@H](N)CCCCN)C(=O)N[C@H](C(=O)N[C@@H](CC(C)C)C(=O)O)C(C)(C)C` [Compound 15, H-Lys-Lys-Pro-Dmt-Tle-Leu-OH] (H-KKP[Dmt][Tle]L-OH): the NTS1/NTS2 selectivity in data set [2] worked out at 24. In addition, in data set [3] (30 μg/kg i.t.), the “effect on body temperature” value is on record as “not effective in reducing the body temperature; also recorded: not effective to induce drop in body temperature”. The “Hypothermia ΔTemp” value in data set [3] worked out at 0.14 ± 0.2 °C. Also, the Ki was 57 ± 6 nM in data set [4] (setting [7]) and 2.4 ± 1 nM in data set [5].
`Cc1cc(O)cc(C)c1C[C@H](NC(=O)[C@@H]1CCCN1C(=O)[C@H](CCCCN)NC[C@@H](N)CCCCN)C(=O)N[C@H](C(=O)N[C@@H](CC(C)C)C(=O)O)C(C)(C)C` [Compound 16, H-Lysψ[CH2NH]Lys-Pro-Dmt-Tle-Leu-OH] (H-[X1]P[Dmt][Tle]L-OH): in data set [2], the NTS1/NTS2 selectivity amounted to 79. In addition, the half-life at 0.156 mM in data set [6] was more than 1200 min. Also, the “effect on body temperature” value in data set [3] (30 μg/kg i.t.) is reported as “long-lasting hypothermia”. In data set [3], the “Hypothermia ΔTemp” value is −2.0 ± 0.3 °C. Moreover, the temperature drop result in data set [3] (for up to 60 min, 30 μg/kg i.t.) was “more than 2 °C”. Moreover, the figures for the Ki in data set [4] (setting [7]) and in data set [5] were 110 ± 2 nM and 1.4 ± 0.5 nM, respectively.
